Literature values, collected in patent US12130296B2, “Method for the direct detection and/or quantification of at least one compound with a molecular weight of at least 200” (SANIFIT THERAPEUTICS S.A., priority 2011, dated 2024).

Settings: 12 dissociable protons; Carbohydr Res 46, 159-171; 1976

Structure (SMILES): O=P(O)(O)O[C@H]1[C@H](OP(=O)(O)O)[C@@H](OP(=O)(O)O)[C@H](OP(=O)(O)O)[C@@H](OP(=O)(O)O)[C@H]1OP(=O)(O)O [inositol hexaphosphate]
- pKa values: from negative values to more than 10
